Literature values, collected in patent publication US12597519B2, “Methods for characterizing and treating a cancer type using cancer images” (TESARO, INC., priority 2019, dated 2026).

What was measured:
[1] = test system: platinum-sensitive relapsed ovarian cancer
[2] = test system: cancer cell lines silenced for BRCA-1 or BRCA-2, or carrying BRCA-1 or BRCA-2 mutations; details: BRCA-defective cells

| SMILES | overall survival benefit ([1]; interim analysis, intent to treat populations) | outcome in subset of patients who had BRCA mutations ([1]; planned analysis, BRCA mutation subset) | mechanism of antiproliferative activity [2] |
| --- | --- | --- | --- |
| O=C(c1cc(Cc2n[nH]c(=O)c3ccccc23)ccc1F)N1CCN(C(=O)C2CC2)CC1 [olaparib, 4-[(3-{[4-(cyclopropylcarbonyl)piperazin-1-yl]carbonyl}-4-fluorophenyl)methyl]phthalazin-1(2H)-one] | unlikely to translate into an overall survival benefit | clear advantage |  |
| Cc1ccc(S(=O)(=O)O)cc1.NC(=O)c1cccc2cn(-c3ccc([C@@H]4CCCNC4)cc3)nc12 [Niraparib, (3S)-3-[4-{7-(aminocarbonyl)-2H-indazol-2-yl}phenyl]piperidine] |  |  | cell cycle arrest in G2/M followed by apoptosis |
